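Assay format: 96-well plates, 48-hour exposure. Abbreviation: GI50, concentration required for 50% inhibition of growth.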 Active and inactive are the calls of the source. Rule as the data show it: active = GI50 up to about 1.1 µM and inactive = higher.

Test systems include HOP-92; OVCAR-8; MCF7; HT-29; M14; BT-549; KM12; U-251; SF-295; IGROV-1; 786-0; SK-MEL-5; K562; Malme-3M; A549; UACC-62; SNB-75; ACHN; RXF 393; CAKI-1.
Holding throughout (experiment): growth of human tumour cells (NCI), 48 h

`Cc1cnc2sn(-c3ccc([N+](=O)[O-])cc3)c(=O)c2c1`: the GI50 in the test on HOP-92 was 33.3 µM (inactive); in the test on OVCAR-8, 43 µM (inactive); in the test on MCF7, > 100 µM (inactive); in the test with HT-29, > 100 µM (inactive); in the test with M14, > 100 µM (inactive); in the test on BT-549 it was 43.2 µM (inactive). In addition, the GI50 was > 100 µM (inactive) in the test with KM12; 30.1 µM (inactive) in the test on U-251; 45.3 µM (inactive) in the test with SF-295; 57.3 µM (inactive) in the test on IGROV-1; 56.8 µM (inactive) in the test on 786-0; > 100 µM (inactive) in the test on SK-MEL-5. The GI50 with K562 was > 100 µM (inactive); in the test with Malme-3M, > 100 µM (inactive); with A549, 64.3 µM (inactive); in the test with UACC-62, 64.7 µM (inactive); in the test on SNB-75, 23.8 µM (inactive); with ACHN, 29.4 µM (inactive).
In the case of `CCOC(=O)CSc1nc(-c2ccc(Cl)cc2)c(C#N)c(=O)[nH]1`, the GI50 in the test on HOP-92 was 42.3 µM (inactive); in the test with OVCAR-8, > 100 µM (inactive); in the test on MCF7 it was 99.5 µM (inactive); with HT-29 it was > 100 µM (inactive); with M14 it was > 100 µM (inactive); in the test with RXF 393, > 100 µM (inactive). Also, the GI50 with BT-549, in the test on KM12, in the test on U-251, in the test on SF-295, in the test with IGROV-1 and in the test with 786-0 was > 100 µM (inactive) in each case. The GI50 in the test with CAKI-1 was > 100 µM (inactive); in the test on SK-MEL-5 it was > 100 µM (inactive); in the test on K562, 36 µM (inactive); in the test with A549, > 100 µM (inactive); with UACC-62 it was 92 µM (inactive); with SNB-75, 63.7 µM (inactive). For the same molecule, in the test with ACHN, the GI50 was > 100 µM (inactive).
For the molecule `c1ccc(C(=NNc2nc3ccccc3[nH]2)c2ccccn2)nc1`, the GI50 was 0.0232 µM (active) with HOP-92; 0.0993 µM (active) in the test with OVCAR-8; 0.143 µM (active) in the test on MCF7; 0.0221 µM (active) in the test with HT-29; 0.126 µM (active) in the test on M14; 0.197 µM (active) in the test on RXF 393. Besides, the GI50 with BT-549 is 0.48 µM (active); in the test on KM12, 0.298 µM (active); with U-251, 0.171 µM (active); with SF-295 it was 2.13 µM (inactive); in the test with IGROV-1, 0.112 µM (active); in the test on 786-0, 0.123 µM (active). Also, the GI50 is 0.102 µM (active) with CAKI-1; 0.159 µM (active) in the test on SK-MEL-5; 0.172 µM (active) in the test on K562; 0.3 µM (active) in the test with A549; 0.222 µM (active) with UACC-62; 0.218 µM (active) in the test on SNB-75. Besides, the GI50 with ACHN was 0.114 µM (active).
For the molecule `Cc1nn(C(=O)c2ccc(Cl)cc2)c2c1C(c1ccco1)SC(=N)N2` (centres undefined), the GI50 in the test on HOP-92, in the test with OVCAR-8, in the test on MCF7, with HT-29, with M14 and in the test with RXF 393 was > 10 µM (inactive) each time. In addition, the GI50 in the test with BT-549, in the test on KM12, in the test with U-251, in the test on SF-295, in the test on IGROV-1 and in the test with 786-0 was > 10 µM (inactive) throughout. Moreover, the GI50 with CAKI-1, with SK-MEL-5, with K562, in the test with A549, in the test with UACC-62 and with SNB-75 was > 10 µM (inactive) in each case. Moreover, the GI50 in the test with ACHN is > 10 µM (inactive).
For the molecule `Cc1ccc(Nc2cn(COCc3ccccc3)c(=O)[nH]c2=O)cc1`, the GI50 was > 100 µM (inactive) in the test on HOP-92; > 100 µM (inactive) in the test on MCF7; > 100 µM (inactive) in the test with HT-29; > 100 µM (inactive) in the test on M14; > 100 µM (inactive) in the test with RXF 393; 11.7 µM (inactive) in the test with BT-549. Further, the GI50 is > 100 µM (inactive) in the test on KM12; > 100 µM (inactive) with U-251; 39.7 µM (inactive) in the test on SF-295; 45.6 µM (inactive) with IGROV-1; 43.5 µM (inactive) in the test on 786-0; 65.5 µM (inactive) with CAKI-1. In addition, the GI50 was > 100 µM (inactive) in the test on SK-MEL-5; > 100 µM (inactive) in the test on K562; > 100 µM (inactive) in the test with A549; 43.9 µM (inactive) in the test with UACC-62; 37 µM (inactive) in the test on ACHN.
Regarding `Cc1ccc(Cl)c2c(=O)c3ccc(N)cc3sc12`, the GI50 is 13.2 µM (inactive) with OVCAR-8; 15.7 µM (inactive) in the test on MCF7; 17.5 µM (inactive) with HT-29; 28.4 µM (inactive) in the test with M14; 22.1 µM (inactive) in the test with RXF 393; 29.4 µM (inactive) in the test on BT-549. Further, the GI50 was 14.7 µM (inactive) in the test with KM12; 13.5 µM (inactive) in the test on SF-295; 10 µM (inactive) with IGROV-1; 24.9 µM (inactive) in the test with 786-0; 24.9 µM (inactive) in the test on CAKI-1; 17.5 µM (inactive) with SK-MEL-5. Besides, the GI50 with K562 is 18.4 µM (inactive); with A549 it was 24.9 µM (inactive); with UACC-62, 14.9 µM (inactive); in the test on SNB-75 it was 13.6 µM (inactive); in the test with ACHN it was 21.4 µM (inactive).
`Nc1ccc2nc(N)n[n+]([O-])c2c1`: the GI50 in the test on OVCAR-8, in the test on MCF7, in the test on HT-29, in the test on M14, in the test with BT-549 and in the test with KM12 was > 100 µM (inactive) in each case. Moreover, the GI50 is > 100 µM (inactive) in the test on U-251; 10 µM (inactive) with SF-295; > 100 µM (inactive) in the test on IGROV-1; > 100 µM (inactive) with 786-0; > 100 µM (inactive) with CAKI-1; > 100 µM (inactive) with SK-MEL-5. Also, the GI50 was > 100 µM (inactive) in the test with K562; > 100 µM (inactive) in the test on A549; > 100 µM (inactive) with UACC-62; 92.7 µM (inactive) in the test with SNB-75; > 100 µM (inactive) with ACHN.
For `CCOC(=O)N1CCN(c2ccc3ccc(N)nc3n2)CC1`, the GI50 was > 100 µM (inactive) with HOP-92; > 100 µM (inactive) in the test on OVCAR-8; > 100 µM (inactive) with MCF7; 80.2 µM (inactive) in the test on HT-29; > 100 µM (inactive) with M14; > 100 µM (inactive) in the test with BT-549. Also, the GI50 with KM12, in the test with U-251, with SF-295, in the test with IGROV-1, with 786-0 and in the test on CAKI-1 was > 100 µM (inactive) in each case. In addition, the GI50 with K562, in the test with Malme-3M, in the test on A549, in the test on UACC-62, in the test on SNB-75 and in the test on ACHN was > 100 µM (inactive) each time.
For `CCOC(=O)NC(N(C)C(C(C)C)P(=O)(OCC)OCC)(C(F)(F)F)C(F)(F)F` (centres undefined), the GI50 with HOP-92, in the test on OVCAR-8, in the test on MCF7, in the test with HT-29, in the test on M14 and with RXF 393 was > 100 µM (inactive) throughout. The GI50 in the test on KM12, with U-251, in the test on SF-295, in the test with IGROV-1, in the test on 786-0 and in the test with CAKI-1 was > 100 µM (inactive) throughout. Further, the GI50 with SK-MEL-5, in the test with K562, in the test with Malme-3M, with A549, in the test with UACC-62 and in the test on SNB-75 was > 100 µM (inactive) in each case. Further, the GI50 in the test with ACHN is > 100 µM (inactive).
For the molecule `O=S(=O)(c1ccc(/N=N/O)nc1)c1ccc2ccccc2c1`, the GI50 with OVCAR-8 was > 100 µM (inactive); in the test with MCF7 it was > 100 µM (inactive); in the test on HT-29, 65.8 µM (inactive); in the test on M14, > 100 µM (inactive); in the test with BT-549 it was > 100 µM (inactive); in the test with KM12, > 100 µM (inactive). Further, the GI50 in the test with U-251 was > 100 µM (inactive); with SF-295, > 100 µM (inactive); in the test with IGROV-1, 54.8 µM (inactive); with 786-0, > 100 µM (inactive); in the test on CAKI-1 it was 88.5 µM (inactive); in the test with SK-MEL-5 it was 36.8 µM (inactive). Besides, the GI50 with K562 was 75 µM (inactive); with Malme-3M, 26.5 µM (inactive); with A549, > 100 µM (inactive); with UACC-62 it was 98.4 µM (inactive); in the test on SNB-75 it was 22.1 µM (inactive); in the test with ACHN, > 100 µM (inactive).
Take `Cc1cccc(-c2cc(O)c3cccnc3n2)c1`: the GI50 in the test with HOP-92 was 88.3 µM (inactive); with OVCAR-8, 1.35 µM (inactive); in the test with MCF7 it was 0.378 µM (active); in the test on HT-29, 0.264 µM (active); in the test on M14, 0.555 µM (active); with RXF 393, 6.24 µM (inactive). The GI50 is > 100 µM (inactive) with BT-549; 0.173 µM (active) in the test with KM12; 0.449 µM (active) in the test on U-251; 1.36 µM (inactive) with SF-295; 0.914 µM (active) in the test on IGROV-1; 0.569 µM (active) in the test on 786-0. Moreover, the GI50 was 0.467 µM (active) in the test with SK-MEL-5; 0.0993 µM (active) with K562; 1.34 µM (inactive) in the test with A549; 0.292 µM (active) in the test with UACC-62; 1.26 µM (inactive) in the test with SNB-75; 18.7 µM (inactive) with ACHN.
